Test results published in PMC6928761, “Trypanocidal Mechanism of Action and in silico Studies of p-Coumaric Acid Derivatives” (International Journal of Molecular Sciences, 2019).
Like-named read-outs stand apart in the source and are kept apart here.

Key:
[1] = system: T. cruzi (strain Y) epimastigotes; experiment: Effect on T. cruzi epimastigote forms (24 h, Neubauer chamber count); format: cell-based, Trypanosoma cruzi; details: for trypanocidal activity (in words): epimastigote forms
Protocol: (§1) The trypanocidal activity of the p-coumaric derivatives (1–12) were evaluated against epimastigotes and trypomastigote forms of T. cruzi (strain Y) at 24 h of incubation and in host LLC-MK2 cells at 24 h of exposure to different concentrations: 100; 50; 25; 12.5; 6.25; 3.12; and 1.56 μg/mL. In the MTT assay it was possible to calculate the IC50 of the tested substances through cell viability, which was calculated in relation to the negative control, whose absorbance was considered 100%.
Preparation of T. cruzi epimastigote was performed by cultivation in 96-well Y-staining plates at a density of 10^6 cells/mL, and using liver tryptose infusion with 10% fetal bovine serum (SFB) supplementation, and 1% antibiotic. They were then treated with p-coumaric derivatives. The grown parasites presenting inhibition were collected and quantified in a Neubauer chamber after incubation at 28 °C for 24 h. To determine relative viability, parasites treated only with sterile PBS medium were used as negative controls (viability of 100%), and experiments were performed in triplicate.

LLC-MK2 cells = experiment: Cytotoxicity evaluation (mammalian cells), MTT assay; format: cell-based; details: Macaca mulatta, read-out: LLC-MK2 IC50
Protocol: as §1
For cell viability we used a standard MTT assay. LLC-MK2 cells were inoculated in DMEM medium, treated with different concentrations of p-coumaric derivatives and incubated at 37 °C for 24 h. MTT (Amresco, Solon, Ohio, USA; 5 mg/mL) was inserted and the cells were incubated for 4 h.
In the next procedure, formazan was solubilized in 10% sodium dodecyl sulfate (SDS; Vetec, São Paulo, Brazil). For cell viability analysis, a plate reader (Biochrom® Asys Expert Plus, CAMBRIGE, UK) with a wavelength of 570 nm was used. While in relative cell viability cells were calculated, which were treated with sterile PBS in triplicate for negative controls and experiments.

[2] = system: T. cruzi (strain Y) trypomastigotes; experiment: Effect on T. cruzi trypomastigote forms (24 h); format: cell-based; details: Trypanosoma cruzi, read-out: Y strain (Tripomastigotes) IC50
Protocol: as §1
Acquisition of T. cruzi trypomastigotes was by infection of LLCMK2 cells using trypomastigotes in T-25/75cm^2 containers at 37 °C with 5% CO2 atmosphere in DMEM (Vitrocell, São Paulo, Brazil) and supplementation of 1% antibiotics and 2% SFB for 24 h. Then the trypomastigotes were plated and treated with p-coumaric acid derivatives. Cell viability was counted after 24 h of incubation at 37 °C. LC50 was obtained. While relative cell viability was calculated using sterile PBS-treated cells for both negative controls and experiments, all in triplicate.

[3] = system: T. cruzi epimastigote forms; experiment: Cell death profile, 7-AAD / annexin V-PE flow cytometry; format: cell-based, Trypanosoma cruzi; details: 5.164 and 10.329 μM, 24 h
Protocol: Epimastigote forms were used to assess the cell death profile using labeling with AxPE and 7-AAD. For data interpretation, the cells were divided into four cell populations: viable cells, with low levels of labeling for both fluorochromes (un-labeled); necrotic cells, labeled only with 7-AAD (7AAD +); apoptotic cells, labeled with annexin V-PE only (/ AxPE +); and doubly labeled late apoptotic cells (7AAD +/AxPE +).
Evaluation of the mechanism by which compound 7 induced cell death was performed using flow cytometry with 7-AAD (7-aminoactinomicyn D) and phycoerythrin-labeled Annexin V (AxPE) as fluorescent markers. 7-AAD is a molecule capable of specifically interleaving into DNA. However, it is not able to penetrate cells with intact membranes. Cells with high 7-AAD labeling are thus considered necrotic due to loss of membrane integrity. Annexin V is a 36 KDa protein that in the presence of calcium ions presents high affinity for phosphatidylserine. Thus, Ax/PE is used to evaluate external phosphatidylserine as a marker of apoptosis.
T. cruzi epimastigote forms were cultured at a density of 10^6 cells/mL in the presence of compound 7 (at concentrations of 5.164 and 10.329 μM) for 24 h in a BOD greenhouse. The cells were then transferred to cytometry tubes, centrifuged at 4000 RPM for 5 min, and washed with PBS once, and then washed twice with binding buffer (pH 7.4; 10 mM HEPES solution; 140 mM NaCl and 2.5 CaCl2 mM). After final centrifugation, the pellet was re-suspended in 100 µl binding buffer, 5 µl 7-AAD (0.5 mg/mL), and 5 µl Ax/PE. […] After 15 min of incubation in the dark, 400 µl of binding buffer was added to each tube and cells were analyzed on FACSCalibur (BD Biosciences, San José, Califórnia, EUA).
For each tube, a minimum of 10^4 cells were analyzed for quantitation of the percentage of unlabeled, and individually or double labeled 7-AAD and Ax/PE cells. […] Ax/PE labeled cells were read by an FL2 detector (563 at 606 nm, yellow fluorescence), while 7-AAD labeled cells were read at 615 to 645 nm wavelength (red fluorescence, FL3 detector).

[4] = system: T. cruzi epimastigote forms; experiment: Cytoplasmic reactive oxygen species, DCFH-DA flow cytometry; format: cell-based, Trypanosoma cruzi; details: both treated groups (5.164 and 10.329 μM) vs control, 24 h
Protocol: The increased presence of reactive oxygen species (ROS) in the cytoplasm of compound 7 treated epimastigote cells was analyzed using the 2′,7′-dichlorofluorescein diacetate reagent (DCFH-DA). As a lipophilic molecule, when internalized in cells it is cleaved by cytoplasmic esterase into DCFH (reduced 2′-7′-dichlorofluorescein), and as it is unable to cross membranes DCFH reacts with intra-cytoplasmic ROSs producing DCF (oxidized 2′-7′-dichlorofluorescein). DCF emits green fluorescence, and the fluorescent intensity emitted by the cell is directly proportional to the intra-cytoplasmic ROS concentration.
A concentration of 10^6 epimastigotes/mL were placed in 24-well plates in the presence of BIS (5.164 and 10.329 μM). […] After 24 h of incubation with compound 7, the cells were harvested, centrifuged (2800 RPM for 7 min), washed with PBS twice, and re-suspended in 500 µL PBS. At the end, the cells were analyzed by flow cytometer.
In accordance with Kessler et al. (2013), the level of labeling in each group was assessed by the mean geometric fluorescence intensity. The results obtained were expressed as relative fluorescence intensity using the formula:(1) Relative fluorescence=mTEST/mCONTROL where: • mTEST = geometric mean of the group to be analyzed; • mCONTROL = geometric mean of the control group.

[5] = system: T. cruzi epimastigote forms; experiment: Mitochondrial transmembrane potential, rhodamine 123 flow cytometry; format: cell-based, Trypanosoma cruzi; details: 5.164 and 10.329 μM, 24 h
Protocol: Mitochondrial transmembrane potential (ΔΨm) was assessed using rhodamine 123 fluorescent dye (Rho123).
Rhodamine 123 (Rho123) is a lipophilic and cationic dye that under normal conditions accumulates in the mitochondrial inter-membrane space. Presenting affinity with hydrogen ions, there is a reduction in the concentration of H^+ ions in the inter-membrane space, which decreases Rho123 accumulation, as illustrated in Figure 5. Changes in ΔΨm can be measured using Rho123, measuring the decrease in green fluorescence.
The compound 7 (5.164 and 10.329 μM) was added to the epimastigotes (10^6 cells) in 24-well plates. At 24 h of incubation, cells were transferred to tubes, centrifuged and washed with PBS. The cells were then re-suspended in 100 µL PBS, and 5 µL of Rho123 solution (200 µg/mL in absolute ethanol) was added to obtain a final concentration of 10 µg/mL. Samples were incubated in the dark for 30 min, washed twice with PBS, and re-suspended in PBS (500 µL/tube). Finally, the samples were analyzed using flow cytometry. Results were evaluated using relative fluorescent intensity, calculated as described in the previous item.

T. cruzi amastigotes = system: T. cruzi amastigotes; set-up: method as in Lima et al. (2015) [41]; details: ref Lima et al. (2015) [41]; read-out: activity against T. cruzi amastigotes; cited from earlier work
Trypanosoma brucei = system: Trypanosoma brucei; set-up: method as in Steverding et al. (2016) [47]; details: ref Steverding et al. (2016) [47]; cited from earlier work
[6] = Trypanosoma cruzi, 24 h, read-out: Y strain (Epimastigotes) IC50, 24 h incubation

SMILES | IC50 [1, 6] | IC50 (LLC-MK2 cells; LLC-MK2, 24 h) | trypanocidal activity (in words) [1] | also measured
COC(=O)/C=C/c1ccc(O)cc1 [compound 1, (E)-Methyl 3-(4-hydroxyphenyl)acrylate] |  |  |  | IC50 ([1]; Trypanosoma cruzi, 24 h incubation, read-out: Y strain (Epimastigotes) IC50): 601 ± 249 µM; IC50 (LLC-MK2 cells; LLC-MK2, 24 h exposure, MTT): > 561 µM
CCOC(=O)/C=C/c1ccc(O)cc1 [compound 2] | 216 ± 109 µM | 443 ± 109 µM |  | 
CCCOC(=O)/C=C/c1ccc(O)cc1 [compound 3, Propyl p-coumarate] | 16.8 ± 1.93 µM | 446 ± 187 µM | good trypanocidal activity | IC50 [2]: 117 ± 59.1 µM
CC(C)OC(=O)/C=C/c1ccc(O)cc1 [compound 4] | 335 ± 54.3 µM | 290 ± 49 µM |  | 
COCCOC(=O)/C=C/c1ccc(O)cc1 [compound 5, 2-methoxyethyl p-coumarate] | 32 ± 5.39 µM | > 450 µM | good trypanocidal activity | IC50 [2]: 360 ± 112 µM
CCCCOC(=O)/C=C/c1ccc(O)cc1 [compound 6] | 155 ± 33.1 µM | 274 ± 46.8 µM |  | 
CCCCCOC(=O)/C=C/c1ccc(O)cc1 [compound 7, pentyl p-coumarate] | 5.16 ± 1.28 µM | 123 ± 22.6 µM | good trypanocidal activity | cell death profile [3]: cell death by necrosis; percentage of 7-AAD-labeled cells [3]: increase; percentage of viable cells [3]: reduction; relative fluorescence (DCF, reactive oxygen species) [4]: increase; rhodamine 123 accumulation (mitochondrial transmembrane potential) [5]: reduction; IC50 [2]: 61.6 ± 28.6 µM
CC(C)CCOC(=O)/C=C/c1ccc(O)cc1 [compound 8, isopentyl p-coumarate] | 13.2 ± 2.56 µM | 120 ± 19.2 µM | good trypanocidal activity | IC50 [2]: 111 ± 38.7 µM
CCCCCCOC(=O)/C=C/c1ccc(O)cc1 [compound 9] | 68.9 ± 18.1 µM | 131 ± 16.9 µM |  | 
CCCCCCCCCCCCOC(=O)/C=C/c1ccc(O)cc1 [compound 10] | 50.6 ± 18.9 µM | 141 ± 15.2 µM |  | 
Cc1ccc(COC(=O)/C=C/c2ccc(O)cc2)cc1 [compound 11] | 75.5 ± 13.4 µM | 160 ± 97.6 µM | did not show significant trypanocidal activity | 
CC(C)c1ccc(COC(=O)/C=C/c2ccc(O)cc2)cc1 [compound 12] | 68.9 ± 18.1 µM | 2.74 µM | did not show significant trypanocidal activity | IC50 ([1]; read-out: Y strain (Epimastigotes) IC50, 24 h incubation): 40.1 ± 10.1 µM
CCOC(=O)/C=C/c1ccc(O)c(O)c1 [ethyl caffeate] |  |  |  | IC50 (T. cruzi amastigotes): 18.3 µM
CC(C)CCOC(=O)/C=C/c1ccc(O)c(O)c1 [isopentyl caffeate] |  |  |  | effect on parasite growth (Trypanosoma brucei): inhibited parasite growth
